From patent publication US20230027361A1, “METTL3 MODULATORS” (priority 2019, published 2023)
Where two headings read alike, the source gives them in different places.

Key:
[1] = tested on: MOLM-13 cells; test: MOLM-13 96 Hour Cell Proliferation Assay; type: cell-based
Protocol: MOLM-13 (DSMZ) cells were seeded at 600 cells per well in a volume of 44 μL in a Greiner Bio-One CELLSTAR™ 384 Well Polystyrene Cell Culture clear bottom microplate in RPMI 1640 media containing 10% fetal bovine serum using a Multidrop Combi (ThermoFisher Scientific). Cells were incubated overnight at 37° C. in a humidified tissue culture incubator. To prevent evaporation or to reduce edge effect, add 50 μL or more H2O to an empty plate, cover, and place on top of the cell plates. The Mosquito® HTS Liquid Handler was used to make a compound/media intermediate plate by aliquoting 1 μL of compound from the initial compound dilution plate (concentrations ranging from 10.0 mM to 38.0 nM in 100% DMSO) into Bio-One 384-well polypropylene conical bottom microplate containing 49 μL of media containing the appropriate serum (50-fold dilution, 2% DMSO, compound concentrations ranging from 200.0 μM and […]). The Apricot liquid handling system was used to transfer 6.2 μL compounds from the intermediate plate into the seeding plate containing 44 μL cells (8-fold dilution spanning concentrations 25.0 μM to […], 0.25% DMSO final), and placed in a humidified tissue culture incubator at 37° C. After 96 hours, 25 μL of Cell Titer-Glo reagent (Promega) was added to each well using an Integra liquid handling system. The plate was protected from light using TopSeal-A (Black) film over the entire plate, added White Bottom seal film on the bottom of the entire plate for a better reading on the Envision, and placed on an IKA plate shaker for at 300 rpm for 10 minutes at room temperature. The plate was read on an EnVision plate reader (Perkin Elmer) using the Ultra Sensitive Luminescence protocol. Data analysis was performed by normalizing the raw luminescence units to an average of the positive control values for staurosporine (100% cell death) and the negative control values for DMSO (0% cell death). An IC50 was calculated using a 4-parameter logistic nonlinear regression model in GraphPad Prism.

[2] = molecular target: METTL3/METTL14 (Homo sapiens, UniProt Q86U44); test: METTL3-14 Standard Enzyme Assay (METTL3 biochemical assay)
Chain of METTL3/METTL14 (Q86U44 whole entry, species assumed): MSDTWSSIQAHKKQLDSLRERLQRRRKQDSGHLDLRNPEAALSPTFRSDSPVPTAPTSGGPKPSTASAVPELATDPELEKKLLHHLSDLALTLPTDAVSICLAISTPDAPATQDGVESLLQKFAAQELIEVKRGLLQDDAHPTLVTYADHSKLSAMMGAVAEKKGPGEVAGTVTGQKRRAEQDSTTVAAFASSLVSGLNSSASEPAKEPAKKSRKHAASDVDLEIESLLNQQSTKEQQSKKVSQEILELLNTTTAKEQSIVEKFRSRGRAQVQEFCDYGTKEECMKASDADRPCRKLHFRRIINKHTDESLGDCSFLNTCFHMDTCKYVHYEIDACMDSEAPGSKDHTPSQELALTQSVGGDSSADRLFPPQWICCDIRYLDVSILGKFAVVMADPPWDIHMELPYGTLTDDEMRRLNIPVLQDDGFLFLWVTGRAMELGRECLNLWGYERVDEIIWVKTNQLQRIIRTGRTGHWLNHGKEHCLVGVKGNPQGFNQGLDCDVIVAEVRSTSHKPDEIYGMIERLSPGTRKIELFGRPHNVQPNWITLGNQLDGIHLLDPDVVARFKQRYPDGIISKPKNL
Chain of METTL3/METTL14 (Q9HCE5 whole entry partner, species assumed): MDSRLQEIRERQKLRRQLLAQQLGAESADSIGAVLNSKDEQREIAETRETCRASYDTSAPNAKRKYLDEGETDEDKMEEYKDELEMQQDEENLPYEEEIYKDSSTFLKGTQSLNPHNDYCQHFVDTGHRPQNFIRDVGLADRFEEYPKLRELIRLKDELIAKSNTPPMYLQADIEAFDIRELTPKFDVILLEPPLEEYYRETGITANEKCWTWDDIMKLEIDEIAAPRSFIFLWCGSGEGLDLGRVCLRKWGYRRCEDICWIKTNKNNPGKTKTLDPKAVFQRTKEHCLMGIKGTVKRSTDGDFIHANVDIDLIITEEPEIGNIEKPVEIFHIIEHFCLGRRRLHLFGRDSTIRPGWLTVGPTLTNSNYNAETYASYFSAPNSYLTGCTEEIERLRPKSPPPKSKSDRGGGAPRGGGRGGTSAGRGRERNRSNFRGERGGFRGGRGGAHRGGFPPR
How it was run: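 Tritium transfer from ³H-SAM (100 nM) to biotinylated RNA (100 nM) captured on streptavidin flashplates and counted by scintillation. Enzyme complex (2.5 nM) with compound, 5 min preincubation, 30 min reaction at ambient temperature, HEPES pH 7.5 buffer, stopped by excess unlabeled SAM.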

[3] = tested on: MOLM-13 cells; test: MOLM-13 48 Hour Cell Proliferation Assay; type: cell-based
Protocol: MOLM-13 (DSMZ) cells were seeded at 1000 cells per well in a volume of 44 μL in a Falcon 384-well tissue culture treated clear bottom microplate in RPMI 1640 media containing 10% fetal bovine serum using a Multidrop Combi (ThermoFisher Scientific). Cells were incubated overnight at 37° C. in a humidified tissue culture incubator. The Mosquito® HTS Liquid Handler was used to make a compound/media intermediate plate by aliquoting 1 μL of compound from the initial compound dilution plate (concentrations ranging from 10.0 mM to 38.0 nM in 100% DMSO) into a V bottom 384-well screen matrix plate containing 49 μL of media containing the appropriate serum (50-fold dilution, 2% DMSO). The Apricot liquid handling system was used to transfer 6.2 μL compounds from the intermediate plate into the Falcon 384-well tissue culture plate containing 44 μL cells (10-point, 4-fold dilution spanning concentrations 25.0 μM to […], 0.25% DMSO final), and placed in a humidified tissue culture incubator at 37° C. After 48 hours, 25 μL of Cell Titer-Glo reagent (Promega) was added to each well using a Multidrop Combi. The plate was protected from light and placed on an IKA plate shaker for at 300 rpm for 10 minutes at room temperature. The plate was read on an EnVision plate reader (Perkin Elmer) using the Ultra Sensitive Luminescence protocol. Data analysis was performed by normalizing the raw luminescence units to an average of the positive control values for staurosporine (100% cell death) and the negative control values for DMSO (0% cell death). An IC50 was calculated using a 4-parameter logistic nonlinear regression model in GraphPad Prism.

[4] = molecular target: PRMT5-MEP50 (Homo sapiens, UniProt O14744); test: PRMT5 Assay (PRMT5 biochemical assay)
Chain of PRMT5-MEP50 (O14744 whole entry): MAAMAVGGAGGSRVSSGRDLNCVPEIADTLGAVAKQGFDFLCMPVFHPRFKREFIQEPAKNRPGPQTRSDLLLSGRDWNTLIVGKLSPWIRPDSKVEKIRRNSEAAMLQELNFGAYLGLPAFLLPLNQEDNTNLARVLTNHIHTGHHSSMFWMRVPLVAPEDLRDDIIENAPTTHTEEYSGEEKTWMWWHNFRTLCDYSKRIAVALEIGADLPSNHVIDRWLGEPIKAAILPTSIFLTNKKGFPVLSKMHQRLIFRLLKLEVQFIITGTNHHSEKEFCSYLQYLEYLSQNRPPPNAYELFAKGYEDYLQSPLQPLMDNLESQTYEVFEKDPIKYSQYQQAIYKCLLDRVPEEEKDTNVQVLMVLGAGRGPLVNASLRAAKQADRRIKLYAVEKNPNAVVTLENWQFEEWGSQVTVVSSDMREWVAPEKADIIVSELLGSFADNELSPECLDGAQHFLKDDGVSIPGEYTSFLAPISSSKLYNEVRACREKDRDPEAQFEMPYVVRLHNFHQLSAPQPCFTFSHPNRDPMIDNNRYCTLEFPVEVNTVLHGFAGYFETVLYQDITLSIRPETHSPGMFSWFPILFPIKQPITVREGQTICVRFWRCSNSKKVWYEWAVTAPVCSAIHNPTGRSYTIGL
Chain of PRMT5-MEP50 (Q9BQA1 whole entry partner): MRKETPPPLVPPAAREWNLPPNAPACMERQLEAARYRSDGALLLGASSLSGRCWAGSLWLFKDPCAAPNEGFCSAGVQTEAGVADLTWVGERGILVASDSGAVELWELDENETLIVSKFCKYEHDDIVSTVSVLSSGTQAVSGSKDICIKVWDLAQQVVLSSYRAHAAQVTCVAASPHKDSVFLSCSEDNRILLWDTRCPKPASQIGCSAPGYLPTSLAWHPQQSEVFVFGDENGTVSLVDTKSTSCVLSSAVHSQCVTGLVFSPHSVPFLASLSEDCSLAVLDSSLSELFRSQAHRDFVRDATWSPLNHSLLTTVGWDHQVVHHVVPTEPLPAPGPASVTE
How it was run: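 Radiometric methyltransferase read-out: after 60 min reaction, excess unlabelled SAM (15 μM) stops turnover and biotinylated H4 peptide (100 nM) carrying 3H-methyl from 250 nM 3H-SAM is captured on streptavidin flashplates (2 h, 25° C) for scintillation counting. Enzyme, 2.5 nM PRMT5-MEP50, was preincubated 5 min with compound in pH 8.0 Tris buffer with DTT and Tween.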

[5] = molecular target: METTL1/WDR4 (Homo sapiens, UniProt Q9UBP6); test: METTL1 Assay (METTL1 biochemical assay)
Chain of METTL1/WDR4 (Q9UBP6 whole entry, species assumed): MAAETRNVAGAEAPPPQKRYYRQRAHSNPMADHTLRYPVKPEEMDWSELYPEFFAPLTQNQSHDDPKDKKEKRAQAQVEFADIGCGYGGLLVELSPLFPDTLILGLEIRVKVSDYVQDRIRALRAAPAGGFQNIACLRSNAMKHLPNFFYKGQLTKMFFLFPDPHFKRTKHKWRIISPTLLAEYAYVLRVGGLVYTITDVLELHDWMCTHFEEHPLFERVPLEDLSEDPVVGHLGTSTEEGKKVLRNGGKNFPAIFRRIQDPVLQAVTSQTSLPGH
Chain of METTL1/WDR4 (P57081 whole entry partner, species assumed): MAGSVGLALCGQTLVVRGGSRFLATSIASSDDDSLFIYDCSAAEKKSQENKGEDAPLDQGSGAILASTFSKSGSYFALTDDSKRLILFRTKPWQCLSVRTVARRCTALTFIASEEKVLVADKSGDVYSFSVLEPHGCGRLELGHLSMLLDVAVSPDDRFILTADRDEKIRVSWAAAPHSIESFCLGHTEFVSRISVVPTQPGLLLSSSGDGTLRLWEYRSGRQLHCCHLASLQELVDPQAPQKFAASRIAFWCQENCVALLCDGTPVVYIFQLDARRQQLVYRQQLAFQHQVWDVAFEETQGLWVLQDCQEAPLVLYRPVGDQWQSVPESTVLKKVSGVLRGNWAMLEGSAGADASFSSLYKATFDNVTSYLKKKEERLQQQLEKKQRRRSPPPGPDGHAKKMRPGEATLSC
How it was run: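 Radiometric methyltransfer by METTL1/WDR4 (6.25 nM f.c., 5 min preincubation) at ambient temperature in HEPES pH 7.5, KCl, MgCl2, DTT; started with 25 nM 3′-biotinylated RNA and 60 nM 3H-SAM, run 20 min, quenched with 15 μM cold SAM. Product captured on streptavidin flashplates (2 h, 25° C), counted by scintillation.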

[6] = METTL3 biochemical assay, read-out: METTL3 IC50
[7] = PRMT5 biochemical assay, read-out: PRMT5 IC50
[8] = METTL1 biochemical assay, read-out: METTL1 IC50

| Structure (SMILES) | IC50 ([1]; Homo sapiens) [nM] | IC50 [2] [nM] | IC50 ([3]; Homo sapiens) [nM] | IC50 [4] [nM] | IC50 [2, 6] [nM] | IC50 [4, 7] [nM] | also measured |
| --- | --- | --- | --- | --- | --- | --- | --- |
| CN(CCO)c1ccc2ccc(OC[C@H]3O[C@@H](n4cc(-c5ccn(C)n5)c5c(N)ncnc54)[C@@H](F)[C@@H]3O)cc2n1 [I-162] | < 1000 | < 10 | 1000 to 10000 | > 1000 | – | – | – |
| Nc1ncnc2c1c(CO)cn2[C@@H]1O[C@H](COc2ccc3ccc(N4CCC4)nc3c2)[C@@H](O)[C@@H]1F [I-163] | – | – | 1000 to 10000 | – | < 10 | > 1000 | IC50 ([1]; Homo sapiens, MOLM-13, 96 h): 1000 to 10000 nM |
| Nc1ncnc2c1ccn2[C@H]1C[C@H](O)[C@@H](COc2ccc3ccc(N4CCC4)nc3c2)O1 [I-165] | – | – | > 10000 | – | < 10 | > 1000 | IC50 ([1]; Homo sapiens, MOLM-13, 96 h): 1000 to 10000 nM |
| Nc1ncnc2c1c(-n1ccc(C(F)(F)F)n1)cn2[C@H]1C[C@H](O)[C@@H](COc2ccc3ccc(N4CCC4)nc3c2)O1 [I-178] | 1000 to 10000 | < 10 | 1000 to 10000 | > 1000 | – | – | – |
| CNc1ccc2sc(CC[C@H]3O[C@@H](n4cc(-c5ccn(C)n5)c5c(N)ncnc54)[C@@H](F)[C@@H]3O)cc2n1 [I-190] | < 1000 | < 10 | – | 10 to 100 | – | – | – |
| Cn1ccc(-c2cn([C@@H]3O[C@H](COc4ccc5cnc(N6CCC6)nc5c4)[C@@H](O)[C@@H]3F)c3ncnc(N)c23)n1 [I-199] | 1000 to 10000 | < 10 | – | > 1000 | – | – | – |
| Cn1ccc(-c2cn([C@@H]3C[C@H](CCc4ccc5ccc(N6CCC6)nc5c4)[C@@H](O)[C@@H]3F)c3ncnc(N)c23)n1 [I-211] | < 1000 | < 10 | – | > 1000 | – | – | – |
| COCCN(C)C(=O)c1cn([C@@H]2O[C@H](COc3ccc4ccc(N5CCC5)nc4c3)[C@@H](O)[C@@H]2F)c2ncnc(N)c12 [I-217] | > 10000 | 10 to 100 | – | > 1000 | – | – | – |
| Nc1ncnc2c1c(-c1ncco1)cn2[C@@H]1O[C@H](COc2ccc3ccc(N4CCC4)nc3c2)[C@@H](O)[C@@H]1F [I-219] | < 1000 | < 10 | – | > 1000 | – | – | – |
| Nc1ncnc2c1c([C@H]1CCCO1)cn2[C@@H]1O[C@H](COc2ccc3ccc(N4CCC4)nc3c2)[C@@H](O)[C@@H]1F [I-225] | – | – | – | – | – | > 1000 | IC50 [1]: 1000 to 10000 nM; IC50 [3]: 1000 to 10000 nM |
| C=CCc1cn([C@@H]2O[C@H](COc3ccc4ccc(NC)nc4c3)[C@@H](O)[C@H]2O)c2ncnc(N)c12 [I-226] | – | – | < 1000 | – | < 10 | < 10 | IC50 [5]: > 1000 nM |
| CNc1ccc2ccc(OC[C@H]3O[C@H](n4cc(C(O)C5CC5)c5c(N)ncnc54)[C@H](O)[C@@H]3O)cc2n1 (stereo partly drawn) [I-227] | – | – | > 10000 | – | < 10 | < 10 | IC50 [5]: > 1000 nM |
| CNc1ccc2ccc(OC[C@H]3O[C@@H](n4cc(-c5cccc(C)n5)c5c(N)ncnc54)[C@@H](F)[C@@H]3O)cc2n1 [I-229] | – | < 10 | 1000 to 10000 | 10 to 100 | – | – | IC50 [5, 8]: > 1000 nM |
| CNc1ccc2ccc(OC[C@H]3O[C@@H](n4cc(F)c5c(N)ncnc54)[C@@H](F)[C@@H]3O)cc2n1 [I-230] | – | – | 1000 to 10000 | – | < 10 | 10 to 100 | IC50 [5]: > 1000 nM |
| CNc1ccc2ccc(OC[C@H]3O[C@@H](n4cc(-c5ccc(C)cn5)c5c(N)ncnc54)[C@@H](F)[C@@H]3O)cc2n1 [I-231] | – | < 10 | < 1000 | 100 to 1000 | – | – | IC50 [5, 8]: > 1000 nM |
